For the assay, the system named is B6C3F1 mice, B16 melanoma ip, median survival T/C. The assay can be described thus: NCI In Vivo Anticancer Drug Screen. Data for tumor model B16 Melanoma (intraperitoneal) in B6C3F1 mice. The settings on record: endpoint: median survival time, higher = longer survival. The method in brief: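 Values are T/C ratios: the measurement in treated animals divided by that in vehicle-treated controls, using survival or tumor size in mice carrying transplantable tumors.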

Setting [1] is: dose: 50.0 mg/kg/injection, schedule: Q01DX009 (ip), vehicle: saline.
The mark [2] stands for this setting: dose: 100.0 mg/kg/injection, schedule: Q01DX009 (ip), vehicle: saline.

Values joined by “and” are separate entries in the source; they are usually repeats but may differ in a detail not shown here. Equal values may be shown once. Toxic doses and inconclusive results are not listed.

With `C[C@@]1(CO)[C@H](O)CC[C@@]2(C)[C@H]1CC[C@H]1C[C@@H]3C[C@@]12CC[C@@]3(O)COC(=O)CN`, the T/C is, setting by setting: (dose: 0.02 mg/kg/injection, schedule: Q01DX009 (ip), vehicle: saline + alcohol) 98 % of control; (dose: 0.37 mg/kg/injection, schedule: Q01DX009 (ip), vehicle: saline + alcohol) 94 % of control; (dose: 0.4 mg/kg/injection, schedule: Q01DX009 (ip), vehicle: saline + alcohol) 102 % of control; (dose: 0.75 mg/kg/injection, schedule: Q01DX009 (ip), vehicle: saline + alcohol) 98 % of control; (dose: 0.8 mg/kg/injection, schedule: Q01DX009 (ip), vehicle: saline + alcohol) 124 % of control; (dose: 1.5 mg/kg/injection, schedule: Q01DX009 (ip), vehicle: saline + alcohol) 101 % of control. Besides, the T/C reads like this: (dose: 1.6 mg/kg/injection, schedule: Q01DX009 (ip), vehicle: saline + alcohol) 101 % of control; (dose: 1.7 mg/kg/injection, schedule: Q01DX005 (iv), vehicle: saline + alcohol) 108 % of control; (dose: 2.1 mg/kg/injection, schedule: Q01DX001 (iv), vehicle: saline + alcohol) 111 % of control; (dose: 2.1 mg/kg/injection, schedule: Q03HX008 (ip), vehicle: saline + alcohol) 120 % of control; (dose: 2.8 mg/kg/injection, schedule: Q03HX024 (ip), vehicle: saline + alcohol) 97 % of control; (dose: 3.0 mg/kg/injection, schedule: Q01DX009 (ip), vehicle: saline + alcohol) 102 % of control. Further, the T/C is 99 % of control (dose: 3.4 mg/kg/injection, schedule: Q01DX005 (iv), vehicle: saline + alcohol); 103 % of control (dose: 4.2 mg/kg/injection, schedule: Q01DX001 (iv), vehicle: saline + alcohol); 119 % of control (dose: 4.2 mg/kg/injection, schedule: Q03HX008 (ip), vehicle: saline + alcohol); 113 % of control and 105 % of control and 107 % of control (dose: 5.0 mg/kg/injection, schedule: Q03HX027 (ip), vehicle: saline + alcohol); 109 % of control (dose: 5.0 mg/kg/injection, schedule: Q03HX027 (sc), vehicle: saline + alcohol); 116 % of control (dose: 5.6 mg/kg/injection, schedule: Q03HX024 (ip), vehicle: saline + alcohol). Besides, the T/C is, setting by setting: (dose: 6.0 mg/kg/injection, schedule: Q01DX009 (ip), vehicle: saline + alcohol) 93 % of control; (dose: 6.75 mg/kg/injection, schedule: Q01DX005 (ip), vehicle: saline + alcohol) 95 % of control; (dose: 6.8 mg/kg/injection, schedule: Q01DX005 (iv), vehicle: saline + alcohol) 96 % of control; (dose: 8.4 mg/kg/injection, schedule: Q03HX008 (ip), vehicle: saline + alcohol) 114 % of control; (dose: 8.5 mg/kg/injection, schedule: Q01DX001 (iv), vehicle: saline + alcohol) 109 % of control; (dose: 10.0 mg/kg/injection, schedule: Q03HX027 (ip), vehicle: saline + alcohol) 117 % of control and 123 % of control. In addition, the T/C runs as follows: (dose: 10.0 mg/kg/injection, schedule: Q03HX027 (sc), vehicle: saline) 102 % of control; (dose: 12.5 mg/kg/injection, schedule: Q01DX009 (ip), vehicle: saline + alcohol) 111 % of control and 120 % of control; (dose: 13.5 mg/kg/injection, schedule: Q01DX005 (ip), vehicle: saline + alcohol) 104 % of control; (dose: 15.0 mg/kg/injection, schedule: Q01DX009 (ip), vehicle: saline + alcohol) 116 % of control; (dose: 16.8 mg/kg/injection, schedule: Q03HX008 (ip), vehicle: saline + alcohol) 114 % of control; (dose: 16.9 mg/kg/injection, schedule: Q01DX001 (ip), vehicle: saline + alcohol) 103 % of control. For the same compound, the T/C reads like this: (dose: 16.9 mg/kg/injection, schedule: Q01DX001 (iv), vehicle: saline + alcohol) 103 % of control; (dose: 20.0 mg/kg/injection, schedule: Q03HX027 (ip), vehicle: saline + alcohol) 162 % of control; (dose: 20.0 mg/kg/injection, schedule: Q03HX027 (sc), vehicle: saline + alcohol) 108 % of control; (dose: 20.0 mg/kg/injection, schedule: Q03HX027 (sc), vehicle: saline) 100 % of control; (dose: 22.5 mg/kg/injection, schedule: Q04DX003 (ip), vehicle: saline + alcohol) 98 % of control; (dose: 25.0 mg/kg/injection, schedule: Q01DX009 (ip), vehicle: saline + alcohol) 121 % of control and 122 % of control. Besides, the T/C (dose: 27.0 mg/kg/injection, schedule: Q01DX005 (ip), vehicle: saline + alcohol) is 124 % of control; the T/C (dose: 27.0 mg/kg/injection, schedule: Q01DX005 (iv), vehicle: saline + alcohol) was 105 % of control; the T/C (dose: 30.0 mg/kg/injection, schedule: Q01DX009 (ip), vehicle: saline + alcohol) was 124 % of control; the T/C (dose: 30.0 mg/kg/injection, schedule: Q01DX009 (oral), vehicle: saline + alcohol) is 115 % of control; the T/C (dose: 33.7 mg/kg/injection, schedule: Q03HX008 (ip), vehicle: saline + alcohol) was 115 % of control; the T/C (dose: 33.8 mg/kg/injection, schedule: Q01DX001 (ip), vehicle: saline + alcohol) is 110 % of control. Moreover, the T/C runs as follows: (dose: 33.8 mg/kg/injection, schedule: Q01DX001 (iv), vehicle: saline + alcohol) 115 % of control; (dose: 40.0 mg/kg/injection, schedule: Q03HX027 (ip), vehicle: saline + alcohol) 175 % of control and 176 % of control; (dose: 40.0 mg/kg/injection, schedule: Q03HX027 (sc), vehicle: saline + alcohol) 98 % of control; (dose: 40.0 mg/kg/injection, schedule: Q03HX027 (sc), vehicle: saline) 102 % of control; (dose: 45.0 mg/kg/injection, schedule: Q04DX003 (ip), vehicle: saline + alcohol) 92 % of control; (dose: 50.0 mg/kg/injection, schedule: Q01DX009 (ip), vehicle: saline + alcohol) 151 % of control. The T/C runs as follows: (dose: 54.0 mg/kg/injection, schedule: Q01DX005 (ip), vehicle: saline + alcohol) 113 % of control; (dose: 54.0 mg/kg/injection, schedule: Q01DX005 (iv), vehicle: saline + alcohol) 115 % of control; (dose: 60.0 mg/kg/injection, schedule: Q01DX009 (oral), vehicle: saline + alcohol) 117 % of control; (dose: 67.5 mg/kg/injection, schedule: Q01DX001 (ip), vehicle: saline + alcohol) 104 % of control; (dose: 67.5 mg/kg/injection, schedule: Q01DX001 (iv), vehicle: saline + alcohol) 105 % of control; (dose: 80.0 mg/kg/injection, schedule: Q03HX027 (sc), vehicle: saline + alcohol) 121 % of control. For the same compound, the T/C (dose: 80.0 mg/kg/injection, schedule: Q03HX027 (sc), vehicle: saline) was 102 % of control; the T/C (dose: 90.0 mg/kg/injection, schedule: Q04DX003 (ip), vehicle: saline + alcohol) was 91 % of control; the T/C (dose: 240.0 mg/kg/injection, schedule: Q01DX009 (oral), vehicle: saline + alcohol) is 114 % of control; the T/C (dose: 36.0 micrograms per hour, schedule: Q#X X216 (sc), vehicle: saline) was 100 % of control; the T/C (dose: 72.0 micrograms per hour, schedule: Q#X X216 (sc), vehicle: saline) was 102 % of control; the T/C (dose: 144.0 micrograms per hour, schedule: Q#X X216 (sc), vehicle: saline) was 118 % of control.
For `Clc1ncnc2c1ncn2C1CCCO1` (configuration not stated), the T/C (dose: 25.0 mg/kg/injection, schedule: Q01DX009 (ip), vehicle: saline) is 93 % of control; the T/C under setting [1] was 99 % of control; the T/C under setting [2] was 88 % of control and 94 % of control.
As to `Nc1ncc(C2OC(CO)C(O)C2O)c(=O)[nH]1` (configuration not stated), the T/C reads like this: under setting [1], 150 % of control; under setting [2], 154 % of control.
`CCC(C)C(=O)OC1C(=O)OC2CC3C(C)=CC(=O)C(O)C3(C)C3C4(O)OCC23C1C(C)C4O` (configuration not stated): the T/C by setting is: (dose: 2.5 mg/kg/injection, schedule: Q01DX009 (ip), vehicle: saline) 160 % of control; (dose: 5.0 mg/kg/injection, schedule: Q01DX009 (ip), vehicle: saline) 176 % of control.
`O=c1ccc2ccccc2o1`: the T/C was 116 % of control and 118 % of control (dose: 7.5 mg/kg/injection, schedule: Q01DX009 (ip), vehicle: saline with Tween-80); 117 % of control and 120 % of control (dose: 15.0 mg/kg/injection, schedule: Q01DX009 (ip), vehicle: saline with Tween-80); 111 % of control and 112 % of control (dose: 30.0 mg/kg/injection, schedule: Q01DX009 (ip), vehicle: saline with Tween-80); 120 % of control and 100 % of control (dose: 60.0 mg/kg/injection, schedule: Q01DX009 (ip), vehicle: saline with Tween-80); 90 % of control and 96 % of control (dose: 120.0 mg/kg/injection, schedule: Q01DX009 (ip), vehicle: saline with Tween-80).
